This is an account of results in publication PMC3878827, “Synthesis and biological characterisation of ^18F-SIG343 and ^18F-SIG353, novel and high selectivity σ2 radiotracers, for tumour imaging properties” (EJNMMI Research, 2013).

For data set [1], the target named is Opioid, non-selective. Briefly: Cross activity at neuroreceptors (Caliper LifeSciences): opioid. In kind it is binding. The note with it: determined by Caliper LifeSciences; read-out: Affinity Opioid, non-selective (IC50). The protocol:
(§1) The test compounds were solubilised in DMSO and diluted in 50 mmol/L Tris-HCl (pH 8.0). Membrane homogenates were prepared from male Sprague-Dawley rat brains as previously described. The binding of σ ligands to σ1 and σ2 receptors was determined according to literature methods with minor modification. Briefly, the percentage of inhibition was determined by incubating, in triplicate, aliquots of diluted rat brain membrane (300 μg of protein) with 10^-11 to 10^-5 mol/L concentrations of the studied drugs in 50 mmol/L Tris-HCl (pH 8.0) with ^3H-(+)-pentazocine (3 nmol/L) at 37°C for 2.5 h for σ1 receptors or with ^3H-DTG (10 nmol/L) and (+)-pentazocine (1 μmol/L) at 25°C for 1.5 h for σ2 receptors. […] After incubation, the reaction was terminated by rapid filtration using a Brandel 48-well cell harvester (Brandel, Gaithersburg, MD, USA) over Whatman GF/B glass fibre filters that were soaked in a solution of 0.5% polyethyleneimine at 4°C for at least 2 h before use. […] The filters were collected and the amount of bound radioactivity was measured using a β-scintillation counter (Tri-Carb 2100TR, Packard Instrument Co., Downers Grove, IL, USA). The percentage inhibition of the studied drugs, at concentrations of 10^-5 and 10^-7 mol/L, was also determined for the cross activity at a number of other neuroreceptors (Caliper LifeSciences, MA, USA). […]

Data set [2] addresses T1, σ1 receptors (Rattus norvegicus, UniProt Q9R0C9).
T1 construct: aliquots of diluted rat brain membrane (300 μg of protein); from tissue; host or cells: male Sprague-Dawley rat brain membrane homogenate
Briefly: Radioreceptor binding assay, σ1 (3H-(+)-pentazocine, rat brain membrane). The note with it: determined by ANSTO LifeSciences, read-out: Affinity σ1 (Ki). On the procedure: as §1

Data set [3] deals with T2, σ2 receptors (Rattus norvegicus, UniProt Q5U3Y7).
T2 sequence (Q5U3Y7 1-176): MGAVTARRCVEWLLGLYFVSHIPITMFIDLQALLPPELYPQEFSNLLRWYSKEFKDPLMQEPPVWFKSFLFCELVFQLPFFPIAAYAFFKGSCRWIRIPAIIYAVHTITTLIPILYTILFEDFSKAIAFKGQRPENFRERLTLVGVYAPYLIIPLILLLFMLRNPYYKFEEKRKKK
Briefly: Radioreceptor binding assay, σ2 (3H-DTG + (+)-pentazocine, rat brain membrane). The note with it: for Ki: rat brain membrane, 3H-DTG with (+)-pentazocine, determined by ANSTO LifeSciences, read-out: Affinity σ2 (Ki); for Selectivity σ2:σ1: ratio of Ki values, Table 2. The protocol: The test compounds were solubilised in DMSO and diluted in 50 mmol/L Tris-HCl (pH 8.0). Membrane homogenates were prepared from male Sprague-Dawley rat brains as previously described. The binding of σ ligands to σ1 and σ2 receptors was determined according to literature methods with minor modification. Briefly, the percentage of inhibition was determined by incubating, in triplicate, aliquots of diluted rat brain membrane (300 μg of protein) with 10^-11 to 10^-5 mol/L concentrations of the studied drugs in 50 mmol/L Tris-HCl (pH 8.0) with ^3H-(+)-pentazocine (3 nmol/L) at 37°C for 2.5 h for σ1 receptors or with ^3H-DTG (10 nmol/L) and (+)-pentazocine (1 μmol/L) at 25°C for 1.5 h for σ2 receptors. […] After incubation, the reaction was terminated by rapid filtration using a Brandel 48-well cell harvester (Brandel, Gaithersburg, MD, USA) over Whatman GF/B glass fibre filters that were soaked in a solution of 0.5% polyethyleneimine at 4°C for at least 2 h before use. Filters were washed three times with 5 mL of ice-cold wash buffer (50 mmol/L Tris HCl, pH 7.4). The filters were collected and the amount of bound radioactivity was measured using a β-scintillation counter (Tri-Carb 2100TR, Packard Instrument Co., Downers Grove, IL, USA). The percentage inhibition of the studied drugs, at concentrations of 10^-5 and 10^-7 mol/L, was also determined for the cross activity at a number of other neuroreceptors (Caliper LifeSciences, MA, USA). The IC50 values were then converted to apparent Ki values using the Cheng-Prusoff equation and radioligand Kd values.

The target of data set [4] is Serotonin, non-selective. As to the kind of experiment: Cross activity at neuroreceptors (Caliper LifeSciences): serotonin. In kind it is binding. The note with it: determined by Caliper LifeSciences; read-out: Affinity Serotonin, non-selective (IC50). On the procedure:
as §1

Data set [5] concerns the target Dopamine, non-selective. Briefly: Cross activity at neuroreceptors (Caliper LifeSciences): dopamine. In kind it is binding. Conditions: determined by Caliper LifeSciences; read-out: Affinity Dopamine, non-selective (IC50). On the procedure:
as §1

The target of data set [6] is T3, CB1, non-selective (Homo sapiens, UniProt P21554).
T3 construct: Caliper LifeSciences
T3 sequence (P21554 whole entry): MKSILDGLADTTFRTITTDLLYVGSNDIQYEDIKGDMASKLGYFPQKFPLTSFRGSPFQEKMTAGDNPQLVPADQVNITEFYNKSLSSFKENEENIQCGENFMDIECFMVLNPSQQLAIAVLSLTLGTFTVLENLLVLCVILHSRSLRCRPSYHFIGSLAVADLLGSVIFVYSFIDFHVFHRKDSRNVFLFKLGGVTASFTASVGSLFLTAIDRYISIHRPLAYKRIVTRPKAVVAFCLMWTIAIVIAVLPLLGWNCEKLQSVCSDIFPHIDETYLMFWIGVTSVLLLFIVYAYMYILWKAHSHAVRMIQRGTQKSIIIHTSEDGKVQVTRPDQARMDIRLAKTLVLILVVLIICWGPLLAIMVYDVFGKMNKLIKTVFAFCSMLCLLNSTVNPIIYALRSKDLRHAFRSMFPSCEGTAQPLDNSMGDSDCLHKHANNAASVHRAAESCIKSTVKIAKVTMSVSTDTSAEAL
As to the kind of experiment: Cross activity at neuroreceptors (Caliper LifeSciences): CB1. It counts as binding. Conditions: determined by Caliper LifeSciences; read-out: Affinity CB1, non-selective (IC50). On the procedure:
as §1

A short description of data set [7]: Lipophilicity by RP-HPLC (logP7.5). It counts as physicochemical. Conditions: logP7.5, phosphate buffer pH 7.5. The protocol:
The lipophilicity of SIG343 and SIG353 were assessed using RP-HPLC by determining the logP7.5 value using literature procedures.

Data set [8] addresses Muscarinic, non-selective. Briefly: Cross activity at neuroreceptors (Caliper LifeSciences): muscarinic. The note with it: determined by Caliper LifeSciences; read-out: Affinity Muscarinic, non-selective (IC50). It counts as binding. On the procedure: as §1
The conditions of data set [9]: rats, intravenous bolus; cited from earlier work.

The term IC50 denotes the concentration that gives 50% inhibition. Usually Ki stands for the dissociation constant of the complex between target and ligand, obtained from inhibition or displacement. Usually chromatographic logP stands for lipophilicity estimated from chromatographic retention. High values mean a more lipophilic compound, low ones a more hydrophilic compound.

T1 sequence (Q9R0C9 whole entry): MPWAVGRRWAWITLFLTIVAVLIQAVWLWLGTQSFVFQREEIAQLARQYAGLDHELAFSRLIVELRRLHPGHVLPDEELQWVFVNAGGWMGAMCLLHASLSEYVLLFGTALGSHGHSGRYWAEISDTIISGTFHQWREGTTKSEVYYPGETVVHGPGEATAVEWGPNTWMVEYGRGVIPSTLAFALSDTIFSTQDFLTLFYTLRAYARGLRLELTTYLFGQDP

`COc1cc2c(cc1OC)CN(CCCCN1C(=O)c3ccc(F)cc3C1=O)CC2` [SIG343, 2-(4-(6,7-Dimethoxy-3,4-dihydroisoquinolin-2(1H)-yl)butyl)-5-fluoroisoindoline-1,3-dione]: the IC50 in data set [1], in data set [4], in data set [5], in [6] and in data set [8] was over 10 µM in each case. Moreover, the Ki worked out at 1.6 µM in [2] and 0.008 µM in [3]. For the same molecule, the “Selectivity σ2:σ1” value in data set [3] was determined as 200. Besides, in [7], the chromatographic logP is 3.11 ± 0.08.
With `COc1cc2c(cc1OC)CN(CCCCCN1C(=O)c3ccc(F)cc3C1=O)CC2` [SIG353, 2-(5-(6,7-Dimethoxy-3,4-dihydroisoquinolin-2(1H)-yl)pentyl)-5-fluoroisoindoline-1,3-dione], the IC50 in [1], in data set [4], in data set [5], in data set [6] and in [8] was over 10 µM throughout. The Ki in [2] amounted to 0.266 µM; in data set [3], 0.0024 µM. Besides, the “Selectivity σ2:σ1” value in [3] came out at 110. The molecule further displayed a chromatographic logP in data set [7] of 3.47 ± 0.09.
As for `O=C(CCCN1CCC(O)(c2ccc(Cl)cc2)CC1)c1ccc(F)cc1` [haloperidol], the Terminal half-life in data set [9] was 1.5 h.
